Reference: patent publication US20260183262A1, “RNA-BINDING MOTIF PROTEIN 39 (RBM39) DEGRADERS FOR TREATMENT OF CANCERS” (RECURSION PHARMACEUTICALS, INC., priority 2022, published 2026)

Experiments:
OVCAR3 cells = experiment: CellTiter-Glo cell viability assay in OVCAR3 cell line; format: cell-based, human; conditions: 72 h
Description: • Cell culture: OVCAR3 is a human ovarian cancer cell line that is BRCA-proficient and HRD negative. Pharmaron in China acquired this cell line for in vitro testing. OVCAR3 human ovarian tumor cells were maintained in vitro with RPMI-1640 (Glutamax)+0.01 mg/ml insulin+20% FBS+1% PS • Cell Seeding: Cells were harvested from flask into cell culture medium and counted. Cells were diluted with culture medium for below cell densities and 8000 OVCAR cells were plated per well in a 384-well plate (PerkinElmer, Cat. #6007680), using electronic multichannel pipette in 40 μL. For the low control wells, 40 μL PBS was added. […] Plates were covered with lid and spun at 1 min/1000 rpm followed by incubation overnight at 37° C., 5% CO2. • Compound Time: SR4835 and THZ531 were dissolved at 10 mM stock solution and diluted in a 3-fold, 9-point diluted series. Cells were treated with 40 nL of SR4835 and THZ531 by plate reformat Echo550 followed by incubation at 37° C. for 72 h in a CO2 incubator. For the high control, 40 nL DMSO was added. • Readout: CellTiter-Glo@ 2.0 Reagent (Promega, G9242) was removed from the fridge and equilibrated at RT(23° C.) for 60 minutes. Plates were removed from the incubator and allowed to equilibrate to room temperature, for at least 15 minutes. 30 μL CellTiter-Glo® 2.0 Reagent was added to the assay plates and allowed to sit for 30 minutes prior to reading. Luminescence signal was read on Envision. • Calculation: Cell viability (% DMSO control) was calculated using the following equation
• Cell culture: OVCAR3 is a human ovarian cancer cell line that is BRCA-proficient and HRD negative. Pharmaron in China acquired this cell line for in vitro testing. OVCAR3 human ovarian tumor cells were maintained in vitro with RPMI-1640 (Glutamax)+0.01 mg/ml insulin+20% FBS. • Cell Seeding: Cells were harvested from flask into cell culture medium and counted. Cells were diluted with culture medium for below cell densities and 8000 OVCAR cells were plated per well in a 384-well plate (PerkinElmer, Cat. #6007680), using electronic multichannel pipette in 50 μL For the low control wells, 50 μL PBS was added. […] Cells were treated with E7820 and indisulam by plate reformat Echo software and spun 1 min/1000 rpm followed by incubation at 37° C. for 72 h in a CO2 incubator. • Readout: CellTiter-Glo@ 2.0 Reagent (Promega, G9242) was removed from the fridge and equilibrated at RT (23° C.) for 60 minutes. […] 40 μL CellTiter-Glo® 2.0 Reagent was added to the assay plates, and spun 1 min/1000 rpm, then allowed to sit for 20 minutes prior to reading. Luminescence signal was read on Envision. • Calculation: Cell viability (% DMSO control) was calculated using the following equation

CDK12+Cyclin K = biological target: T1, CDK12+Cyclin K (Homo sapiens, UniProt Q9NYV4); experiment: NanoBRET target engagement intracellular kinase assay in HEK293; format: cell-based; conditions: HEK293 cells transfected with CDK12-NanoLuc and CCNK; up to 10 μM
T1 construct: host or cells: HEK293 (transient transfection, FuGENE HD)
T1 sequence (Q9NYV4 whole entry): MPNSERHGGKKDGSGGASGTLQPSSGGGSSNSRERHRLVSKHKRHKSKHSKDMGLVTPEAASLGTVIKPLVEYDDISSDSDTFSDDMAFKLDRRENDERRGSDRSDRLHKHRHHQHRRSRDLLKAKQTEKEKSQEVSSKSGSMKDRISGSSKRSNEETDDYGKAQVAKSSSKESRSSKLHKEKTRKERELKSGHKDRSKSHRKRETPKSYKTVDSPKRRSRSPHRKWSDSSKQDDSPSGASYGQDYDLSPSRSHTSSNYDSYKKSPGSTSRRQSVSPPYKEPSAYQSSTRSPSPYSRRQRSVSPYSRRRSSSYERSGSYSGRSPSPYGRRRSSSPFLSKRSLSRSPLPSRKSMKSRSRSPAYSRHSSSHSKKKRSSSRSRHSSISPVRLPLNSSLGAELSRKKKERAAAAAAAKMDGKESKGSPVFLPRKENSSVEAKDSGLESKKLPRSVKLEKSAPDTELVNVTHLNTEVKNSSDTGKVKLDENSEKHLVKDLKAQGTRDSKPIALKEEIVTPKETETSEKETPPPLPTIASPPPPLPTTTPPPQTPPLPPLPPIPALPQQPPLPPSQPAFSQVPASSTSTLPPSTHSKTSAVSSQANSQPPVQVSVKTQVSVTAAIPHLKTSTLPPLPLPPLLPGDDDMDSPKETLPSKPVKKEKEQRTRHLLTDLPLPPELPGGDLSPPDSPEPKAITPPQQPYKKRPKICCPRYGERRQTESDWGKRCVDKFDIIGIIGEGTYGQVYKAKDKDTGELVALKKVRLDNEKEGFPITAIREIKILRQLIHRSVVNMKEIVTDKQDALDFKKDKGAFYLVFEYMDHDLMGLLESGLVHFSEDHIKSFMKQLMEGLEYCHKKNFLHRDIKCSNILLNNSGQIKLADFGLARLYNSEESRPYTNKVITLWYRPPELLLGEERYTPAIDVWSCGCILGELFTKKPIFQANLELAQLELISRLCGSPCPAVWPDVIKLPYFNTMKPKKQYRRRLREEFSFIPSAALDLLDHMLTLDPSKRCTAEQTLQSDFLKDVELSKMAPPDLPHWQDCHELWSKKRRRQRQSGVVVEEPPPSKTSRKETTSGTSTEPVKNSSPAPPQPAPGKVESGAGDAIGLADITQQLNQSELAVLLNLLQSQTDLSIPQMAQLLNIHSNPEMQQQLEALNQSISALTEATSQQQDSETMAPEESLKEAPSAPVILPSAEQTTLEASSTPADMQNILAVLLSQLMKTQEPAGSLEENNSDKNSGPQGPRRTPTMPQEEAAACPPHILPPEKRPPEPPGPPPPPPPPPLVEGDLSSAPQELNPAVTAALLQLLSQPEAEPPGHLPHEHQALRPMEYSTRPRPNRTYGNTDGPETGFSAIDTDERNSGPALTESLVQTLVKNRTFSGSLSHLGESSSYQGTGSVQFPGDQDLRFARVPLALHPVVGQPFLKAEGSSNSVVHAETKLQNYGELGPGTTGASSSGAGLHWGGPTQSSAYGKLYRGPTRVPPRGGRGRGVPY
T1 sequence (O75909 whole entry partner): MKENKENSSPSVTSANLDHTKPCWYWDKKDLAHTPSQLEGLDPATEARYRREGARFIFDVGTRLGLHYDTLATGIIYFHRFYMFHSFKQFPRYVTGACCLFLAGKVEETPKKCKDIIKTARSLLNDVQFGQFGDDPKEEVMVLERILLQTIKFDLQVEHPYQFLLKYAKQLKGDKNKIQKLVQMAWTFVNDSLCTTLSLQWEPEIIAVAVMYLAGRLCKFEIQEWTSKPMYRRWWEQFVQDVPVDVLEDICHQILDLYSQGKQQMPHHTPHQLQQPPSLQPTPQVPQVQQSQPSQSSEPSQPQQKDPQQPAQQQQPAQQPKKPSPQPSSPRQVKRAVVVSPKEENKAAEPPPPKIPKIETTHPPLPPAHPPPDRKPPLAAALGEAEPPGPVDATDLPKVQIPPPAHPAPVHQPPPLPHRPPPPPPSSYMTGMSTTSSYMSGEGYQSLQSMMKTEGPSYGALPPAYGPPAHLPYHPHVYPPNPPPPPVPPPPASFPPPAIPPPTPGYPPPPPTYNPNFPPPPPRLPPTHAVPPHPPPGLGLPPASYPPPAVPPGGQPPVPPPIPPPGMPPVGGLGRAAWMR
Description: • Cell culture: CDK12 NanoBRET assay kit was obtained from Reaction Biology with experiment performed by Pharmaron. HEK293 cells were cultured using 90% DMEM with 10% FBS. Cells were cultivated in T-75 flasks in a cell culture incubator set at 37° C., 5% CO^2, 95% relative humidity. Once cells reached 80-90% confluence, they were detached and split. Cultivated cells in T-75 flasks were rinsed with 5 mL PB and aspirated off. 1.5 mL trypsin was added and incubated at 37° C. for approximately 5 minutes or until the cells detached and started to float. Trypsin was inactivated by adding excess serum containing medium. • Transient Transfection of HEK293 Cells: Cell culture medium was removed from cell flask by aspiration and trypsinized, allowing cells to dissociate from flask. Trypsin was neutralized using cell culture medium and centrifuged at 200×g for 5 minutes to pellet cells. Medium was aspirated and resuspended in assay medium consisting of 99% Opti-MEM, reduced serum medium with no phenol red and 1% FBS. Density was adjusted to 2×10^5 cells/ml using assay medium. 10 μg/ml solution of DNA in Opti-MEM was prepared consisting of 9 μg/mL of CCNK, 1 ug/mL of Kinase-NanoLuc fusion vector DNA CDK12, and 1 mL of Opti-MEM. This solution was mixed thoroughly. 30 μl of FuGENE HD Transfection Reagent was added into each milliliter of DNA mixture to form lipid: DNA complex. Mixture was inverted 5-10 times and incubated at ambient temperature for 20 minutes to allow complexes to form. In a sterile, conical tub, 1 part of lipid DNA complex (1 mL) was mixed with 20 parts of HEK293 cells (20 mL) in suspension at 2×10^5 cells/mL. Tube was mixed gently by inversion 5 times. […] Lastly, 20 μL of this 3× complete substrate plus inhibitor solution was added to each well of the 384-well plate and incubated for 2-3 minutes at room temperature and read the plate on the Envision. • Calculation: BRET Ratio was calculated as follows: […]

CDK12 knockout = experiment: High content phenotypic CRISPR/Cas9 screen in HUVEC cells: CDK12 knockout phenocopy; format: cell-based, human; conditions: wild-type HUVEC cells; machine vision analysis
From the text: (§1) As disclosed herein, numerous small molecules have been investigated for HRD deficient and PARP inhibitor resistant cancers and it was confirmed that E7820 is efficacious alone or in combination with PARP inhibitors in preclinical mouse cancer models. To select E7820 as a potential therapeutic for this disease, a high content phenotypic whole genome arrayed CRISPR/Cas9 screen was developed in HUVEC cells to identify cellular and structural changes associated between the genetic knockout of human genes. This high dimensional biological data set of single gene knockout phenotypes was then compared to the cellular and structural changes arising from the treatment of over 200,000 small molecules in intron-controlled wild-type HUVEC cells. […] RBM39 degraders, such as these aryl sulfonamides, may therefore be used to treat cancers where CDK12 is a suitable therapeutic target, for example, cancers where patients develop resistance to PARP inhibitors or cancers with HRD negative/HR-proficient tumors. Similar to depletion of CDK12, RBM39 degraders may be used to induce a synthetic lethality phenotype when combined with DDR inhibitors such as PARP inhibitors, thus enabling treatment of patients who would not derive benefit from treatment with the DDR inhibitor in the absence of an RBM39 degrader.

[1] = system: RNA-binding motif protein 39 (RBM39) CRISPR/Cas9 knockout; experiment: High content phenotypic CRISPR/Cas9 screen in HUVEC cells: RBM39 knockout phenocopy; format: cell-based, human; conditions: wild-type HUVEC cells; machine vision analysis
From the text: as §1

Row | Structure (SMILES) | cell viability (OVCAR3 cells) | CDK12 kinase activity (CDK12+Cyclin K) | phenocopy of CDK12 knockout (cellular and structural changes) (CDK12 knockout) | phenocopy of RBM39 CRISPR/Cas9 knockout [1]
1 | Cn1cc(-n2cnc3c(NCc4nc5cc(Cl)c(Cl)cc5[nH]4)nc(N4CCOCC4)nc32)cn1 [SR4835] | dose-dependent decreases in cell viability |  |  | 
2 | CN(C)C/C=C/C(=O)Nc1ccc(C(=O)N2CCC[C@@H](Nc3ncc(Cl)c(-c4c[nH]c5ccccc45)n3)C2)cc1 [THZ531] | dose-dependent decreases in cell viability | dose-dependent inhibition of kinase function |  | 
3 | Nc1ccc(S(=O)(=O)Nc2cnc3c(Cl)cccc3n2)cc1 [CQS] |  |  | phenocopy CDK12 loss | phenocopy RNA-binding motif protein 39 (RBM39) CRISPR/Cas9 knockout
4 | O=C(NS(=O)(=O)c1ccc(Br)s1)c1ccc(Cl)cc1Cl [tasisulam] |  |  | phenocopy CDK12 loss | phenocopy RNA-binding motif protein 39 (RBM39) CRISPR/Cas9 knockout
5 | NS(=O)(=O)c1ccc(S(=O)(=O)Nc2cccc3c(Cl)c[nH]c23)cc1 [indisulam] | minimal effect on cell viability | does not affect CDK12 kinase activity | phenocopy CDK12 loss | phenocopy RNA-binding motif protein 39 (RBM39) CRISPR/Cas9 knockout
